# Entries after “also recorded” stand apart in the source; their conditions may differ.
# Key:
# pilocarpine model of TLE = experiment: SRS onset monitoring after QIH induction during the latent period, pilocarpine model of TLE; type: in vivo, mice
# Experimental: (§1) Two to three weeks after surgery, mice were first habituated to intraperitoneal (i.p.) injection of saline four times (once per day). On the day of QIH induction, mice were allowed to be habituated to the experimental room (15C) for 1 hour. A dose of 1 mg/kg of clozapine N-oxide (CNO) was i.p. injected to induce QIH in the same experimental room under darkness and low ambient temperatures of about 18-19 degrees celsius. Mice were allowed to stay in the room for 48 hours, and then returned to the housing colony once the QIH state had wore off.
# (§2) On the day of seizure injection, mice were first i.p. injected with 0.07 mL of scopolamine solution (0.5 mg/mL) to prevent adverse peripheral side effects. Thirty minutes later, 280 mg/kg pilocarpine solution was i.p. injected to produce acute seizure. After the mice reach stage 3, 4, or 5 on the Racine scale of behavioral seizures (modified version below), the development of status epilepticus (SE) is confirmed as a continuous state of seizures characterised by a behavioral expression such as a prominent head tic, rigidity of body and tail, and immobility. One to 3 hours after the initial onset of SE, 0.04 mL of Midazolam (5 mg/mL) was i.p. injected to attenuate the seizures.
# Animals are observed by trained personnel on a daily basis, starting with the first day after QIH exit. The monitoring process is performed while animals are in their homecages, in the experimental room. Observation is conducted for one hour per mouse per day using the scale above (table 1) to identify the severity of the behavioral seizures as they occur. For each mouse, the day on which the first seizure is observed, as well as the perceived severity, are recorded.
# [1] = test system: Q-neurons in the anteroventral periventricular nucleus (AVPe); experiment: QIH induction by CNO with body temperature and extracellular tetrode recording; type: in vivo, mice
# Experimental: All animals were single-housed prior to surgery. During surgery, mice were anesthetized with MMB (a cocktail of medetomidine, midazolam, and butorphanol) and 500 nL of AAV-hSyn-DIO-hM3D(Gq)-mCherry vector was infused through a small craniotomy above AVPe (ML ±0.3; AP +0.38; DV −5.0) at a rate of 50 nL per minute with a micropump syringe (World Precision Instrument). After infusion, the 35 G needle stayed at the infusion site for at least 15 minutes to allow diffusion of the vector. After surgery, animals were carefully monitored to full recovery. For LFP and single/multi-unit recording, we implanted a microdrive consisting of 9 independently adjustable tetrodes (14 um diameter, nichrome wire, gold plated to 200-300 kΩ). In the 2-3 weeks after surgery the depth of the tetrodes were slowly and manually adjusted until stable recording of LFP signals or separatable spike clusters was observed. All adjustments were conducted in a highly familiar small plastic bucket located in the recording room while the animals moved and behaved freely.
# as §1
# All data were acquired using 32-channel Digital Lynx 4SX acquisition system (Neuralynx). The local field potential (LFP) was filtered at 2-9000 Hz. Spike waveforms were filtered between 0.6-6 kHz and those above a peak threshold of […] were time-stamped and digitized at 32,556 Hz. Spikes were manually sorted using SpikeSort3D software (Neuralynx). In short, waveform amplitudes of all spikes recorded from three channels were projected to three dimensional space and putative units were clustered. This procedure was repeated for all combinations of channels and also for energy of spikes. […] A low-pass filter with a cut-off frequency equal to half the target sampling frequency was applied to the LFP prior to downsampling to prevent signal distortion.
# contextual fear memory = experiment: Contextual fear conditioning after QIH; type: in vivo, mice; conditions: after 48 hours of QIH and 72 hours recovery
# Experimental: as §1
# Mice were first handled by an experimenter for at least 5 days to reduce their anxiety. During conditioning, the animals were first allowed to explore the context A (30.5L×24.1W×21H cm, metal grid floor, ethanol odor, white light, white noise) and then received 5 foot shocks (0.75 mA for 2 seconds with 30 seconds inter-shock-intervals). Next day, the same animals returned to the shocked context A and a novel neutral context B (30.5L×24.1W×21H cm, plastic flat floor, acetic acid odor, NIR light under darkness, triangle roof). After QIH induction and recovery, the mice were retested both in contexts A and B.
# [2] = over four thousand adult patients (NPL17); cited from earlier work
# [3] = Seizure induction with pilocarpine; type: in vivo, mice
# Experimental: as §2
# [4] = applied on the epileptogenic zone; even after decades of monitoring (NPL22); cited from earlier work
smiles,measurement,setting,value
"C[N+]1([O-])CCN(C2=Nc3cc(Cl)ccc3Nc3ccccc32)CC1 [CNO, clozapine-N-oxide]",SRS onset (duration of the latent phase),"pilocarpine model of TLE; QIH induced 24 h after midazolam, 48 h QIH, vs control animals in QIH chamber without induction, FIG. 2B",drastic delay in the SRS onset; also recorded: significantly delayed
same,severity of SRS (Racine scale),"pilocarpine model of TLE; QIH vs no QIH during the latent phase, FIG. 2C",no difference in the severity in the SRS
same,time of SRS after induction of the hibernation-like state,pilocarpine model of TLE; as opposed to 1-2 weeks in the rodent model,several months
same,body temperature during QIH,"[1]; after CNO injection (1 mg/kg i.p.), Qrfp-iCre mice with AAV-hSyn-DIO-hM3D(Gq)-mCherry in AVPe, FIG. 1A",reduction in their body temperature
same,spike activity of individual pyramidal cells in the dorsal CA1,"[1]; after QIH induction, FIG. 1C",rapid reduction in their spike activity
same,power spectral density of LFP in the dorsal CA1,"[1]; during QIH, FIG. 1B",substantial reduction in broad frequency ranges
same,time mice stay under QIH after injection,"[1]; intraperitoneal CNO, spontaneous awakening and rewarming afterwards",48 h
same,multi-unit activity recorded from the hypothalamus,"[1]; upon QIH induction, FIG. 1D",reduced upon induction of QIH
same,freezing behavior in Post-Test A,"contextual fear memory; vs control animals without induction, FIG. 3B",comparable level of freezing behavior
same,freezing in Post-Test B (neutral context),contextual fear memory; all groups,negligible degree of freezing
CC[C@@H](C(N)=O)N1CCCC1=O [Levetiracetam],rate of psychiatric and behavioral side effects among the medications,[2],highest rates of side effects
"CC[C@@H]1C(=O)OC[C@@H]1Cc1cncn1C [Pilocarpine, pilocarpine]",time to seizures after injection,[3]; 280 mg/kg i.p.,thirty
same,duration of prolonged seizure (status epilepticus),[3]; before termination with an anticonvulsant drug,about two
NS(=O)(=O)Cc1noc2ccccc12 [Zonisamide],rate of psychiatric and behavioral side effects among the medications,[2],highest rates of side effects
CCCl [ethyl chloride],seizure outcome,[4],complete remission from seizures

# Source: US20260248961A1, “UTILIZATION OF A HIBERNATION-LIKE STATE IN NEUROLOGICAL DISEASES” (OKINAWA INSTITUTE OF SCIENCE AND TECHNOLOGY SCHOOL …, priority 2022, published 2026)
